Test results taken from patent US7713994B2 (Wyeth LLC, priority 2005, dated 2010).
Read-outs that look alike come from different tables or passages of the source.

Tests used:
[1] = test system: BT474; assay: Cytotoxicity assay (SRB), BT474; format: cell-based; details: Homo sapiens, BT-474, 144 h, read-out: In Vitro Cellular Activity IC50 BT474
Method in brief: (§1)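 Percentage survival is derived from SRB absorbance (540 nm) versus untreated cells. Exposures were 3 days, except 6 days for BT474, at 37 °C and 7% CO2.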

[2] = target: T1, cyclin B/CDK1 enzyme (Homo sapiens, UniProt P06493); assay: CDK1 ELISA kinase assay (phospho-Rb ser 795 detection); format: biochemical
T1 construct: purchased New England BioLabs; host or cells: Sf9 insect cells, recombinant baculovirus
Method in brief: (§2)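 Screening was done at 10 ug/ml compound. Each partially purified cyclin/CDK complex, produced in baculovirus-infected Sf9 cells, phosphorylated a coated GST-Rb C-terminal fragment with 200 μM ATP, and Ser795 phosphorylation was quantified by HRP-ELISA at 450 nm.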

[3] = target: T2, cyclin E/CDK2 enzyme (Homo sapiens, UniProt P24941); assay: CDK2 ELISA kinase assay (phospho-Rb ser 795 detection); format: biochemical
T2 construct: made in house; host or cells: Sf9 insect cells, recombinant baculovirus
Method in brief: as §2

[4] = test system: HCT-116; assay: Cytotoxicity assay (SRB), HCT-116; format: cell-based; details: Homo sapiens, HCT-116, 72 h, read-out: In Vitro Cellular Activity IC50 HCT116
Method in brief: as §1

[5] = target: T3, cyclin D1/cdk 4 enzyme (Homo sapiens, UniProt P11802); assay: CDK4 ELISA kinase assay (phospho-Rb ser 795 detection); format: biochemical; details: 200 μM ATP
T3 construct: made in house; host or cells: Sf9 insect cells, recombinant baculovirus
Method in brief: as §2

[6] = test system: LoVo; assay: Cytotoxicity assay (SRB), LoVo; format: cell-based; details: Homo sapiens, LoVo, 72 h, read-out: In Vitro Cellular Activity IC50 LOVO
Method in brief: as §1

[7] = test system: MCF-7; assay: Cytotoxicity assay (SRB), MCF-7; format: cell-based; details: Homo sapiens, MCF7, 72 h, read-out: In Vitro Cellular Activity IC50 MCF-7
Method in brief: as §1

[8] = In Vitro Enzyme Assays, read-out: CDK1 IC50
[9] = In Vitro Enzyme Assays, read-out: CDK2 IC50
[10] = In Vitro Enzyme Assays, read-out: CDK4 IC50

T3 sequence (P11802 whole entry, species assumed): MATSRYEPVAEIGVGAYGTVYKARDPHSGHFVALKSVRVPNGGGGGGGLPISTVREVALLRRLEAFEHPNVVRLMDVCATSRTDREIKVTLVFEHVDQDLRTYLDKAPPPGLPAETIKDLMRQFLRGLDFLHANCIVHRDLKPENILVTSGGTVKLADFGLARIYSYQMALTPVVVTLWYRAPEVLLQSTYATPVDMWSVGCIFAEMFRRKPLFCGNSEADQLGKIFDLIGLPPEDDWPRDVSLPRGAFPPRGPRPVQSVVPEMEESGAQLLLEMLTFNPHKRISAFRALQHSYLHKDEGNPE
T3 sequence (P24385 whole entry partner, species assumed): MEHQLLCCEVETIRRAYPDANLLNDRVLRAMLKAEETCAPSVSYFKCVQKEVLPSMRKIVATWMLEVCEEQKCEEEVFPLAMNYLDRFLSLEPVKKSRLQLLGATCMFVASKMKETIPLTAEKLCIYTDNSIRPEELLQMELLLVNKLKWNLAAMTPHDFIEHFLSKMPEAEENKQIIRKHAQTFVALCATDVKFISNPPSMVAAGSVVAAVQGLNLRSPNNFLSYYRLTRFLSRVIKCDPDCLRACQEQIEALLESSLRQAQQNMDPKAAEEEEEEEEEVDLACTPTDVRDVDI
T1 sequence (P06493 whole entry): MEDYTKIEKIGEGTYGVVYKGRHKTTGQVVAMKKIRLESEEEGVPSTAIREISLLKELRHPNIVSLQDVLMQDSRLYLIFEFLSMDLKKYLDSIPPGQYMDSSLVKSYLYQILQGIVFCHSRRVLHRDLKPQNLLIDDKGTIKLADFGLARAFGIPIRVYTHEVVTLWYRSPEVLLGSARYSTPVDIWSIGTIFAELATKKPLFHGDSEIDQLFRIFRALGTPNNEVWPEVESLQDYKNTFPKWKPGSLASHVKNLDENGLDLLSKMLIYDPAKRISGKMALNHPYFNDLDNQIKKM
T1 sequence (P14635 whole entry partner): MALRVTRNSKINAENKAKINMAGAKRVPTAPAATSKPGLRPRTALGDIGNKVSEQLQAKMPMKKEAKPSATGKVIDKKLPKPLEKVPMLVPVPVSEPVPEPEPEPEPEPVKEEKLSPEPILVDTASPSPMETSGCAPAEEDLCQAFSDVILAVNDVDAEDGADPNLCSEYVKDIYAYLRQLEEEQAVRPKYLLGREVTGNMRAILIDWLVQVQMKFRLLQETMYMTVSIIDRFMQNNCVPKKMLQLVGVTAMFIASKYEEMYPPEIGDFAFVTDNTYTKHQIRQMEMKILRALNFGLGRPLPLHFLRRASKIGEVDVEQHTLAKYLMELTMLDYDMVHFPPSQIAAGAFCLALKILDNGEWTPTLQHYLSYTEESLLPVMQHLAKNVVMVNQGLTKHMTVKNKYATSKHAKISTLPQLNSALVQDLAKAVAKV

| SMILES | IC50 [2, 8] | IC50 [3, 9] | IC50 [5, 10] | melting point | IC50 ([1]; BT474 cells, SRB, 6 days) | IC50 ([4]; HCT116 cells, SRB, three days) | IC50 ([6]; LoVo cells, SRB, three days) | IC50 ([7]; MCF-7 cells, SRB, three days) | IC50 [1] | IC50 [4] | IC50 [6] | IC50 [7] | IC50 ([2]; CDK1 IC50, In Vitro Enzyme Assays) | IC50 ([3]; CDK2 IC50, In Vitro Enzyme Assays) | IC50 ([5]; CDK4 IC50, In Vitro Enzyme Assays) | IC50 ([1]; BT474 cells, 6 days, SRB) | IC50 ([6]; LoVo cells, 3 days, SRB) |
| --- | --- | --- | --- | --- | --- | --- | --- | --- | --- | --- | --- | --- | --- | --- | --- | --- | --- |
| Nc1cccc(CN/C=C2\C(=O)NC(=O)c3ccc(Br)cc32)c1 [Example 52, (4Z)-4-{[(3-Aminobenzyl)amino]methylene}-6-bromoisoquinoline-1,3(2H,4H)-dione] | > 50 µM | 4.5 µM | 24.3 µM | 214 to 215 °C | 41 µM | 40 µM | > 50 µM | > 50 µM |  |  |  |  |  |  |  |  |  |
| CC(=O)Oc1ccc(CN/C=C2\C(=O)NC(=O)c3ccc(Br)cc32)cc1OC(C)=O [Example 54, 2-(Acetyloxy)-4-({[(Z)-(6-bromo-1,3-dioxo-2,3-dihydroisoquinolin-4(1H)-ylidene)methyl]-amino}methyl)phenyl acetate] | > 50 µM | > 50 µM | 0.16 µM | 239 to 240 °C | 6.5 µM | 6.4 µM | 5.9 µM | 9.2 µM |  |  |  |  |  |  |  |  |  |
| NS(=O)(=O)c1ccc(CN/C=C2\C(=O)NC(=O)c3ccc(Br)cc32)cc1 [Example 56, 4-({[(Z)-(6-Bromo-1,3-dioxo-2,3-dihydroisoquinolin-4(1H)-ylidene)methyl]amino}methyl)benzenesulfonamide] | 16.2 µM | 1.3 µM | 0.48 µM | 273 to 274 °C | 23 µM | 28 µM | 30 µM | 27 µM |  |  |  |  |  |  |  |  |  |
| O=C1NC(=O)c2ccc(Br)cc2/C1=C/Nc1ccc(CN2CCCC2)cc1 [Example 59, (4Z)-6-Bromo-4-({[4-(pyrrolidin-1-ylmethyl)phenyl]amino}methylene)isoquinoline-1,3(2H,4H)-dione] | > 50 µM | 25.2 µM | 0.23 µM | 165 to 166 °C |  |  |  |  | 6.3 µM | 4.7 µM | 6.1 µM | 4.13 µM |  |  |  |  |  |
| O=C1NC(=O)c2ccc(Br)cc2/C1=C/NCc1cc(O)cc(O)c1 [Example 64] | 16.5 µM | 0.62 µM | 0.015 µM | 318 to 319 °C | 28 µM | > 50 µM | > 50 µM | > 50 µM |  |  |  |  |  |  |  |  |  |
| CC(=O)Oc1cc(CNC=C2C(=O)NC(=O)c3ccc(Br)cc32)cc(OC(C)=O)c1 [Example 69, Acetic acid 3-acetoxy-5-{[(6-bromo-1,3-dioxo-2,3-dihydro-1H-isoquinolin-4-ylidenemethyl)-amino]-methyl}-phenyl ester] | > 50 µM | 44.5 µM | 0.12 µM | 257 to 258 °C | 5.6 µM | 6.5 µM | 5.2 µM | 8.2 µM |  |  |  |  |  |  |  |  |  |
| CN1CCN(c2ccc(N/C=C3\C(=O)NC(=O)c4ccc(F)cc43)cc2)CC1 [Example 70, (4Z)-6-Fluoro-4-({[4-(4-methylPiperzin-1-yl)phenyl]amino}methylene)isoquinoline-1,3(2H,4H)-dione] | 16.9 µM | > 50 µM | 9.4 µM | 242 to 243 °C | 3.23 µM | 2.55 µM | 5.18 µM | 4.06 µM |  |  |  |  |  |  |  |  |  |
| CN(C)Cc1ccc(N/C=C2\C(=O)NC(=O)c3ccc(Br)cc32)cc1 [Example 73] | 43.5 µM | 7.7 µM | 0.83 µM | 159 to 160 °C | 18 µM | 10 µM | 13 µM | 9.3 µM |  |  |  |  |  |  |  |  |  |
| COC(=O)Oc1ccc(CN/C=C2\C(=O)NC(=O)c3ccc(Br)cc32)cc1OC(=O)OC [Example 76, Carbonic acid 5-{[(6-bromo-1,3-dioxo-2,3-dihydro-1H-isoquinolin-4-ylidenemethyl)-amino]-methyl}-2-methoxycarbonyloxy-phenyl ester methyl ester] | 40.7 µM | > 50 µM | 0.39 µM | 239 to 240 °C | 5.5 µM | 5 µM | 5.9 µM | 9.1 µM |  |  |  |  |  |  |  |  |  |
| COc1cc(CN/C=C2\C(=O)NC(=O)c3ccc(Br)cc32)cc(OC(C)=O)c1OC [Example 77, 5-({[(Z)-(6-Bromo-1,3-dioxo-2,3-dihydroisoquinolin-4(1H)-ylidene)methyl]amino}methyl)-2,3-dimethoxyphenyl acetate] | > 50 µM | > 50 µM | 0.38 µM | 244 to 245 °C | 7.7 µM | 4.8 µM | 8.4 µM | 14.4 µM |  |  |  |  |  |  |  |  |  |
| COc1cc(CN/C=C2\C(=O)NC(=O)c3ccc(-c4ccsc4)cc32)cc(O)c1OC [Example 85] | > 50 µM | > 50 µM | 0.001 µM | 255 to 256 °C | 3.5 µM | 3.7 µM | 2.7 µM | 8.4 µM |  |  |  |  |  |  |  |  |  |
| CCN(CC)C(=O)Oc1cc(CN/C=C2\C(=O)NC(=O)c3ccc(I)cc32)ccc1OC [Example 99, 5-({[(Z)-(6-Iodo-1,3-dioxo-2,3-dihydroisoquinolin-4(1H)-ylidene)methyl]amino}methyl)-2-methoxyphenyl diethylcarbamate] |  |  |  | 128 to 130 °C |  |  |  |  |  |  |  |  | > 50 µM | > 50 µM | 1.4 µM |  |  |
| O=C1NC(=O)c2ccc(Br)cc2C1=CNc1ccc(-c2c[nH]cn2)cc1 [Example 164, 6-Bromo-4-{[4-(1H-imidazol-4-yl)-phenylamino]-methylene}-4H-isoquinolin-1,3-dione] | > 50 µM | 11 µM | 43.4 µM | > 300 °C (dec.) |  |  |  |  |  |  |  |  |  |  |  |  |  |
| CCCOc1ccc(CN/C=C2\C(=O)NC(=O)c3ccc(NC(=O)c4ccco4)cc32)cc1O [Example 197] | > 50 µM | > 50 µM | 12.3 µM | 233 to 234 °C |  |  |  |  |  |  |  |  |  |  |  |  |  |

Second part, led by results:

| IC50 [2, 8] | IC50 [3, 9] | IC50 [5, 10] | melting point | SMILES | IC50 ([1]; BT474 cells, SRB, 6 days) | IC50 ([4]; HCT116 cells, SRB, three days) | IC50 ([6]; LoVo cells, SRB, three days) | IC50 ([7]; MCF-7 cells, SRB, three days) | IC50 [1] | IC50 [4] | IC50 [6] | IC50 [7] | IC50 ([2]; CDK1 IC50, In Vitro Enzyme Assays) | IC50 ([3]; CDK2 IC50, In Vitro Enzyme Assays) | IC50 ([5]; CDK4 IC50, In Vitro Enzyme Assays) | IC50 ([1]; BT474 cells, 6 days, SRB) | IC50 ([6]; LoVo cells, 3 days, SRB) |
| --- | --- | --- | --- | --- | --- | --- | --- | --- | --- | --- | --- | --- | --- | --- | --- | --- | --- |
| > 50 µM | > 50 µM | 4.8 µM | 184 to 185 °C | CC1CN(C)[C@H](C)CN1c1ccc(N/C=C2\C(=O)NC(=O)c3ccc(Br)cc32)cc1 (stereo in doubt) [Example 238, (4Z)-6-Bromo-4-[({4-[(2S,5R)-2,4,5-trimethylpiperazin-1-yl]phenyl}amino)methylene]-isoquinoline-1,3(2H,4H)-dione] | 7.4 µM | 6.7 µM | 4.3 µM | 1 µM |  |  |  |  |  |  |  |  |  |
| > 50 µM | 6.7 µM | 0.08 µM | 245 to 246 °C | Nc1ccc(CN/C=C2\C(=O)NC(=O)c3ccc(Br)cc32)cc1O [Example 227, (4Z)-4-{[(4-Amino-3-hydroxybenzyl)amino]methylene}-6-bromoisoquinoline-1,3(2H,4H)-dione] |  | 44 µM | 37 µM | > 50 µM |  |  |  |  |  |  |  |  |  |
| > 50 µM | 39.7 µM | 35.5 µM | 250 to 253 °C | CC(N)(C(=O)O)c1ccc(NC=C2C(=O)NC(=O)c3ccc(Br)cc32)cc1 (stereo not shown) [Example 277, 2-Amino-2-{4-[(6-bromo-1,3-dioxo-2,3-dihydro-1H-isoquinolin-4-ylidenemethyl)-amino]-phenyl}-propionic acid] |  |  |  |  |  |  |  |  |  |  |  |  |  |
| > 50 µM | 37.1 µM | 1.5 µM | 260 to 262 °C (dec.) | O=C(O)CCCN/C=C1\C(=O)NC(=O)c2ccc(Br)cc21 [Example 314, (Z)-4-((6-Bromo-1,3-dioxo-2,3-dihydroisoquinolin-4(1H)-ylidene)methylamino)butanoic acid] |  |  |  |  |  |  |  |  |  |  |  |  |  |
| 43.4 µM | 31 µM | 0.19 µM | 230 to 240 °C (dec.) | O=C(O)CCCN/C=C1\C(=O)NC(=O)c2ccc(-n3cccc3)cc21 [Example 315, (Z)-4-((1,3-Dioxo-6-(1H-pyrrol-1-yl)-2,3-dihydroisoquinolin-4(1H)-ylidene)methylamino)butanoic acid] |  |  |  |  |  |  |  |  |  |  |  |  |  |
| > 50 µM | > 50 µM | 0.13 µM | 262 to 263 °C | CN1CCN(c2ccc(N/C=C3\C(=O)NC(=O)c4ccc(-c5ccoc5)cc43)nc2)CC1 [Example 443, (4Z)-6-(3-Furyl)-4-({[5-(4-methylpiperazin-1-yl)pyridin-2-yl]amino}methylene)isoquinoline-1,3(2H,4H)-dione] |  |  |  |  |  |  |  |  |  |  |  | 0.65 µM | 0.85 µM |
